{
  "source": "patent US6432640B1",
  "about": "“P53-induced apoptosis” (priority 1997, dated 2002)",
  "assay_type_in_all_cases": "cell-based, human",
  "key": {"DLD-1 cells [1]": {"test_system": "DLD-1 cells", "test": "Cell death by other inducers of apoptosis", "procedure": "(§1) Flow cytometry and other assays. Cells were collected with the aid of trypsin and incubated with CM-H2DCF-DA or NAO (Molecular Probes, Eugene, Oreg.) at concentrations of 10 and 0.4 μM, respectively, for 20 minutes at 37° C. prior to analysis by flow cytometry (14,15). To determine the fraction of apoptotic cells after various treatments, cells were stained with the DNA-binding dye H33258 and evaluated by fluorescence microscopy or flow cytometry as described (1). Superoxide production was assessed with lucigenin (29). In brief, 4-5×10^6 cells were collected with rubber policeman and resuspended in 1 ml of Earle's Balanced Salt Solution (Gibco BRL 14015-069, Life Technologies). Dark-adapted lucigenin (bis-N-methulacridinium nitrate, Sigma M8010) was added to the samples to a final concentration of 20 μM. Light emission was detected using a Berthold LB 9505C luminometer for 60 minutes at 37° C. Glutathione concentrations were measured using an assay kit purchased from Oxford Biomedical Res. Inc. according to the manufacturer's instructions. Caspase activation was assessed by cleavage of PARP (polyADP-ribose polymerase). Lysates from cells infected with Ad-p53 were Western blotted with an anti-PARP antibody, and the cleavage fragments were quantitated by densitometry (4). […]"}, "PIGs (p53-induced genes)": {"test_system": "PIGs (p53-induced genes)", "test": "PIG expression in DLD-1 cells (Northern blot)", "details": "for PIG induction by other inducers of ROS or apoptosis: DLD-1 cells", "procedure": "(§2) Cells and RNA. All cell lines used in this study were obtained from the American Type Culture Collection and were cultured in McCoy's medium supplemented with 10% fetal bovine serum (FBS). Cells were infected with recombinant adenoviruses containing either the p53 gene or the β-galactosidase gene (26) at a multiplicity of infection of 10-100. RNA was purified from cells at various times after infection using the MessageMaker Kit (Gibco/BRL). Northern blot analysis was performed as described (26).\nTo determine the specificity of PIG expression for the p53-dependent apoptotic process, we performed experiments with other inducers of ROS or apoptosis."}, "DLD-1 cells [2]": {"test_system": "DLD-1 cells", "test": "ROS by CM-DCF-DA and cardiolipin by NAO, flow cytometry", "procedure": "FIG. 4A. DLD-1 cells were infected with Ad-p53 or control (Ad-lacZ) viruses and harvested after 27, 35, or 42 hours. Cells were incubated with CM-DCF-DA, a probe of ROS, or NAO, a probe of the mitochondrial membrane cardiolipin, and analyzed by flow cytometry. The mean fluorescence of the control cells is indicated by vertical lines in each box. The pro-oxidant drug menadione was used as a positive control to induce oxidative stress.\nFlow cytometry and other assays. […] To determine the fraction of apoptotic cells after various treatments, cells were stained with the DNA-binding dye H33258 and evaluated by fluorescence microscopy or flow cytometry as described (1). Superoxide production was assessed with lucigenin (29). […] Light emission was detected using a Berthold LB 9505C luminometer for 60 minutes at 37° C. Glutathione concentrations were measured using an assay kit purchased from Oxford Biomedical Res. Inc. according to the manufacturer's instructions. Caspase activation was assessed by cleavage of PARP (polyADP-ribose polymerase). Lysates from cells infected with Ad-p53 were Western blotted with an anti-PARP antibody, and the cleavage fragments were quantitated by densitometry (4). […]"}, "DLD-1 cells [3]": {"test_system": "DLD-1 cells", "test": "Toxicity of inhibitor to cells at the dose used", "details": "100 μM", "procedure": "Finally, we treated cells with bongkrekic acid (BA), a specific inhibitor of mitochondrial ATP translocase which can block the mitochondrial permeability transition pore opening thought to be required for ROS-dependent forms of apoptosis (13). […] BA was non-toxic at the dose used (100 μM). While BA inhibited the p53-apoptotic process dependent on ROS production, it had no effect on the p53-mediated growth arrest dependent on p21 as assessed by flow cytometry."}, "DLD-1 cells [4]": {"test_system": "DLD-1 cells", "test": "ROS production in Ad-p53-infected cells (lucigenin chemiluminescence)", "details": "treated 12 hours after Ad-p53 infection", "procedure": "as §1"}, "DLD-1 cells [5]": {"test_system": "DLD-1 cells", "test": "p53-mediated growth arrest dependent on p21 (flow cytometry)", "procedure": "as §1"}, "DLD-1 cells [6]": {"test_system": "DLD-1 cells", "test": "p53-induced apoptosis in Ad-p53-infected CRC cells (H33258 staining)", "details": "for block of apoptosis: inhibitor given at (up to) 8 hours following Ad-p53 infection, apoptosis at 24 hours", "procedure": "as §2\nFlow cytometry and other assays. Cells were collected with the aid of trypsin and incubated with CM-H2DCF-DA or NAO (Molecular Probes, Eugene, Oreg.) at concentrations of 10 and 0.4 μM, respectively, for 20 minutes at 37° C. prior to analysis by flow cytometry (14,15). To determine the fraction of apoptotic cells after various treatments, cells were stained with the DNA-binding dye H33258 and evaluated by fluorescence microscopy or flow cytometry as described (1). Superoxide production was assessed with lucigenin (29). In brief, 4-5×10^6 cells were collected with rubber policeman and resuspended in 1 ml of Earle's Balanced Salt Solution (Gibco BRL 14015-069, Life Technologies). Dark-adapted lucigenin (bis-N-methulacridinium nitrate, Sigma M8010) was added to the samples to a final concentration of 20 μM. Light emission was detected using a Berthold LB 9505C luminometer for 60 minutes at 37° C. Glutathione concentrations were measured using an assay kit purchased from Oxford Biomedical Res. Inc. according to the manufacturer's instructions. Caspase activation was assessed by cleavage of PARP (polyADP-ribose polymerase). Lysates from cells infected with Ad-p53 were Western blotted with an anti-PARP antibody, and the cleavage fragments were quantitated by densitometry (4).\nTo evaluate the patterns of gene expression following p53 expression, we employed SAGE, a technique which allows the quantitative evaluation of cellular mRNA populations (3). In brief, the method revolves around short sequence “tags” (11 bp), generated from defined positions within each mRNA molecule. Expression patterns are deduced from the abundance of individual tags. […] As previously shown, DLD-1 cells are among the ˜50% of CRC lines that undergo apoptosis in response to p53 (4). RNA was purified from cells 16 hours after infection, at least 8 hours before the onset of morphological signs of apoptosis.\nTo determine whether these steps were causally associated, we inhibited each step with specific pharmacologic agents and determined the effect of this inhibition on other components of the pathway."}, "PIG3": {"test_system": "PIG3", "test": "PIG3 induction by endogenous p53 in six CRC cancer cell lines", "procedure": "as §2\nAs a further test of the p53-dependency of PIG3 induction, we determined whether PIG3 could be induced by endogenous p53 rather than through the exogenous Ad-p53 source. Six CRC cancer cell lines were each treated with adriamycin, a DNA-damaging and apoptotic-inducing agent known to increase endogenous p53 levels."}, "[7]": {"details": "100 μM, treated 12 hours after Ad-p53 infection"}},
  "data": [
    {"compound": "ceramide", "values": [
      {"measurement": "cell death", "setting": "DLD-1 cells [1]", "value": "extensive cell death"},
      {"measurement": "PIG induction by other inducers of ROS or apoptosis", "setting": "PIGs (p53-induced genes)", "value": "did not result in the expression of any PIG"}
    ]},
    {"compound": "COc1ccc2c(c1)c(CC(=O)O)c(C)n2C(=O)c1ccc(Cl)cc1", "note": "[indomethacin]", "values": [
      {"measurement": "cell death", "setting": "DLD-1 cells [1]", "value": "extensive cell death"},
      {"measurement": "PIG induction by other inducers of ROS or apoptosis", "setting": "PIGs (p53-induced genes)", "value": "did not result in the expression of any PIG"}
    ]},
    {"compound": "CC1=CC(=O)c2ccccc2C1=O", "note": "[menadione]", "values": [
      {"measurement": "ROS (DCF fluorescence)", "setting": "DLD-1 cells [2]", "value": "increase in ROS"},
      {"measurement": "PIG induction by other inducers of ROS or apoptosis", "setting": "PIGs (p53-induced genes)", "value": "none were induced"}
    ]},
    {"compound": "CO[C@H](C/C=C\\C=C\\CC/C=C/C[C@H](C)/C=C/C(=C\\C(=O)O)CC(=O)O)/C(C)=C\\C=C(/C)C(=O)O", "note": "[BA, bongkrekic acid]", "values": [
      {"measurement": "toxicity at the dose used", "setting": "DLD-1 cells [3]", "value": "non-toxic"},
      {"measurement": "ROS production", "setting": "DLD-1 cells [4]; 100 μM", "value": "inhibit neither"},
      {"measurement": "effect on p53-mediated growth arrest dependent on p21", "setting": "DLD-1 cells [5]", "value": "no effect"},
      {"measurement": "PIG3 expression", "setting": "PIGs (p53-induced genes); [7]", "value": "inhibit neither"},
      {"measurement": "inhibition of subsequent apoptosis", "setting": "DLD-1 cells [6]; [7]", "value": "86-93%"}
    ]},
    {"compound": "OC[C@H]1O[C@@H](n2cnc3cc(Cl)c(Cl)cc32)[C@H](O)[C@@H]1O", "note": "[DRB, 5,6-dichlorobenimidizole riboside]", "values": [
      {"measurement": "expression of PIGs", "setting": "PIGs (p53-induced genes); Ad-p53-infected cells, DRB at 8 hours following infection", "value": "inhibit the expression of PIGs"},
      {"measurement": "block of apoptosis", "setting": "DLD-1 cells [6]", "value": "83+/−3%"}
    ]},
    {"compound": "OO", "note": "[hydrogen peroxide]", "values": [
      {"measurement": "PIG induction by other inducers of ROS or apoptosis", "setting": "PIGs (p53-induced genes)", "value": "only p21 was induced"}
    ]},
    {"compound": "COc1cccc2c1C(=O)c1c(O)c3c(c(O)c1C2=O)C[C@@](O)(C(=O)CO)C[C@@H]3O[C@H]1C[C@H](N)[C@H](O)[C@H](C)O1", "note": "[adriamycin]", "values": [
      {"measurement": "PIG3 induction", "setting": "PIG3; three CRC lines with mutant p53 genes", "value": "not in the three lines with mutant p53 genes"},
      {"measurement": "PIG3 induction", "setting": "PIG3; three CRC lines with wild-type p53 genes", "value": "strongly induced"}
    ]},
    {"compound": "S=C(S)N1CCCC1", "note": "[PDTC, pyrrolidine dithiocarbamate]", "values": [
      {"measurement": "block of apoptosis elicited by p53", "setting": "DLD-1 cells [6]; p53-expressing cells treated with anti-oxidant", "value": "able to block the apoptosis"}
    ]},
    {"compound": "C[C@@H]1C[C@@H]([C@H](O)CC2CC(=O)NC(=O)C2)C(=O)[C@@H](C)C1", "note": "[cycloheximide]", "values": [
      {"measurement": "block of apoptosis", "setting": "DLD-1 cells [6]", "value": 79, "unit": "%"}
    ]},
    {"compound": "c1ccc2c(c1)[I+]c1ccccc1-2", "note": "[DPI, diphenyleneiodonium chloride]", "values": [
      {"measurement": "inhibition at 25 µM", "setting": "DLD-1 cells [4]; Homo sapiens, DLD-1, 25 μM, measured 12 hours later, three independent experiments", "value": "71 to 85", "unit": "%"},
      {"measurement": "PIG3 production", "setting": "PIGs (p53-induced genes)", "value": "did not inhibit"},
      {"measurement": "inhibition at 25 µM", "setting": "DLD-1 cells [6]; Homo sapiens, DLD-1, 25 μM, treated 12 hours after Ad-p53 infection, measured 12 hours later, three independent experiments", "value": "73 to 77", "unit": "%"}
    ]}
  ]
}
